{"source": "paper PMC6407913", "about": "“DREADD Agonist 21 Is an Effective Agonist for Muscarinic-Based DREADDs in Vitro and in Vivo” (ACS Pharmacology & Translational Science, 2018)", "key": {"hM4Di [1]": {"biological_target": "T1, hM4Di (Homo sapiens, UniProt P08173, A203G/Y113C)", "T1 sequence (P08173 1-479 Y113C/A203G)": "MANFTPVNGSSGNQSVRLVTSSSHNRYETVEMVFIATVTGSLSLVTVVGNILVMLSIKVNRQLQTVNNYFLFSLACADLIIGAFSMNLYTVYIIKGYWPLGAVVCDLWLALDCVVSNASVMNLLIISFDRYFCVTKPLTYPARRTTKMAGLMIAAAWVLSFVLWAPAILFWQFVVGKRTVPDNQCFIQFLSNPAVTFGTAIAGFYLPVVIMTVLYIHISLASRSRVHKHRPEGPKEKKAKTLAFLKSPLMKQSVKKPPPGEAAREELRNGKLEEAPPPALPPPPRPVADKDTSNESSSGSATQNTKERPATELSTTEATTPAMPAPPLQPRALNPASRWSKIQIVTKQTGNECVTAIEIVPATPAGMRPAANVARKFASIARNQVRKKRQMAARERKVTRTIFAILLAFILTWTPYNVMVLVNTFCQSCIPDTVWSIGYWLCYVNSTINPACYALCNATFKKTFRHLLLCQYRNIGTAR", "experiment": "whole-cell [3H]NMS competition binding"}, "hM1Dq [2]": {"biological_target": "T2, hM1Dq (Homo sapiens, UniProt P11229, A196G/Y106C)", "T2 sequence (P11229 1-460 Y106C/A196G)": "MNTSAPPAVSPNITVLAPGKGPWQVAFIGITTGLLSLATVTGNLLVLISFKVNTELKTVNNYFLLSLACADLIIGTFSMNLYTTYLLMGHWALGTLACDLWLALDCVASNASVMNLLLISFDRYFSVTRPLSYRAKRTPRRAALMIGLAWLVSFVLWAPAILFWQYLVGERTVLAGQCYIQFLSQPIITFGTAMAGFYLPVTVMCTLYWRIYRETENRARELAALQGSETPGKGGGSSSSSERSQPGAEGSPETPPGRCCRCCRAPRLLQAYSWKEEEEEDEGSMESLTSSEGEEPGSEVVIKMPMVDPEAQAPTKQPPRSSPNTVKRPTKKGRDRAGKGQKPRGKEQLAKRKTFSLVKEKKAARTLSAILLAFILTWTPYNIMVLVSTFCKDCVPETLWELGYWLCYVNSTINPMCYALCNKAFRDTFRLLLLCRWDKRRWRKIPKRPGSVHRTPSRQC", "experiment": "ERK1/2 phosphorylation (pERK1/2) assay"}, "hM1Dq [3]": {"biological_target": "T2, hM1Dq", "experiment": "whole-cell [3H]NMS competition binding"}, "[4]": {"system": "hM4Di expressed in PVH SIM1 neurons", "experiment": "food intake, hM4Di in PVH SIM1 neurons (Sim1-Cre mice)"}, "hM1 [5]": {"biological_target": "T3, hM1 (Homo sapiens, UniProt P11229)", "T3 sequence (P11229 1-460)": "T2 sequence (P11229 1-460 Y106C/A196G) with C106Y, G196A", "experiment": "IP-One accumulation assay", "assay_type": "cell-based", "conditions": "wildtype hM1"}, "hM1 [6]": {"biological_target": "T3, hM1", "experiment": "whole-cell [3H]NMS competition binding", "conditions": "hM1, FlpIn CHO cells, mean (±SEM)"}, "hM3Dq": {"biological_target": "T4, hM3Dq (Homo sapiens, UniProt P20309, A239G/Y149C)", "T4 construct": "expressed in transfected cells", "T4 sequence (P20309 whole entry Y149C/A239G)": "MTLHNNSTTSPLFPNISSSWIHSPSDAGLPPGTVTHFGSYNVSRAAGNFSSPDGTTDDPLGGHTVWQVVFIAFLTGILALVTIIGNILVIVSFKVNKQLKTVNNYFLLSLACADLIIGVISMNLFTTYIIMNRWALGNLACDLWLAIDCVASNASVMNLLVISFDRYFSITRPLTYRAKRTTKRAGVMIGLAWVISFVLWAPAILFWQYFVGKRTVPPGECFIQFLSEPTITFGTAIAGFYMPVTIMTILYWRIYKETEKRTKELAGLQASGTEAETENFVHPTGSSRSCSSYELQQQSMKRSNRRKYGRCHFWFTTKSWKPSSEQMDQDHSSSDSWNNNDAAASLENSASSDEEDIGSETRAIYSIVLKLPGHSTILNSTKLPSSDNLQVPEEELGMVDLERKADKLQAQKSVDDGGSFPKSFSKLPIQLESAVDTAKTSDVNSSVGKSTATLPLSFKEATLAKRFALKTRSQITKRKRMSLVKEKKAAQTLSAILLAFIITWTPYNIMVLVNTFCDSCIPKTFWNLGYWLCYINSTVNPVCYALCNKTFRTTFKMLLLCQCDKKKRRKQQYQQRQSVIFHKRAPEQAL", "experiment": "Gq-mediated calcium release (FLIPR) assay", "assay_type": "cell-based", "conditions": "CHO cells, mean ± SEM"}, "[7]": {"conditions": "cited from earlier work"}, "hM1Dq [8]": {"biological_target": "T2, hM1Dq", "experiment": "IP-One accumulation assay"}, "[9]": {"system": "hM3Dq expressed in ARC AgRP neurons", "experiment": "food intake, hM3Dq in ARC AgRP neurons (Agrp-ires-Cre mice)"}, "hM1 [10]": {"biological_target": "T3, hM1", "experiment": "ERK1/2 phosphorylation (pERK1/2) assay", "assay_type": "cell-based", "conditions": "wildtype hM1"}, "hM4Di [11]": {"biological_target": "T1, hM4Di", "experiment": "inhibition of isoproterenol-stimulated cAMP production", "assay_type": "cell-based", "set-up": "expressed in transfected cells", "conditions": "inhibition of isoproterenol elevated cAMP, mean (±SEM)"}, "hM4 [12]": {"biological_target": "T5, hM4 (Homo sapiens, UniProt P08173)", "T5 construct": "HA (hemagglutinin); expressed in transfected cells", "T5 sequence (P08173 1-479)": "T1 sequence (P08173 1-479 Y113C/A203G) with C113Y, G203A", "experiment": "whole-cell [3H]NMS competition binding", "conditions": "hM4, FlpIn CHO cells, mean (±SEM)"}, "hM4Di [13]": {"biological_target": "T1, hM4Di", "experiment": "ERK1/2 phosphorylation (pERK1/2) assay"}, "[14]": {"set-up": "method as in PMID 28324647", "conditions": "following systemic administration of 10 mg/kg CNO; cited from earlier work"}, "hM4 [15]": {"biological_target": "T5, hM4", "experiment": "inhibition of isoproterenol-stimulated cAMP production", "assay_type": "cell-based", "conditions": "hM4, inhibition of isoproterenol elevated cAMP, mean (±SEM)"}, "[16]": {"experiment": "brain and plasma exposure after i.p. administration", "assay_type": "in vivo, mice", "conditions": "i.p. 0.1, 1 and 10 mg/kg, 30 min after administration"}}, "note": "Positions count from the first letter of the chain named. Read-outs that look alike come from different tables or passages of the source."}
{"smiles": "CC(=O)OCC[N+](C)(C)C", "note": "[ACh, acetylcholine]", "values": [{"measurement": "reduction in binding affinity at hM4Di vs wildtype", "setting": "hM4Di [1]; hM4Di vs hM4", "value": "> 10", "unit": "fold"}]}
{"smiles": "C[N+]1([O-])CCN(C2=Nc3cc(Cl)ccc3Nc3ccccc32)CC1", "note": "[CNO, clozapine-N-oxide]", "values": [{"measurement": "pEC50 pERK", "setting": "hM1Dq [2]; hM1Dq, CHO cells, mean (±SEM)", "value": "7.70 (±0.25) N = 11"}, {"measurement": "higher binding affinity at hM4Di than at wildtype hM4", "setting": "hM4Di [1]; hM4Di vs hM4", "value": "> 10", "unit": "fold"}, {"measurement": "pKi", "setting": "hM4Di [1]; hM4Di, FlpIn CHO cells, [3H]-NMS, mean (±SEM)", "value": "6.30 (±0.22) N = 3"}, {"measurement": "higher binding affinity at hM1Dq than at wildtype hM1", "setting": "hM1Dq [3]; hM1Dq vs hM1", "value": "> 10", "unit": "fold"}, {"measurement": "pKi", "setting": "hM1Dq [3]; hM1Dq, FlpIn CHO cells, [3H]-NMS, mean (±SEM)", "value": "6.74 (±0.10) N = 9"}, {"measurement": "food intake, light cycle, sated mice", "setting": "[4]; SIM1-Cre mice with AAV-DIO-hM4Di-mCherry, i.p.", "value": "increases feeding behavior in sated mice"}, {"measurement": "food intake in control mice", "setting": "[4]; wildtype (non-Cre-expressing) littermates injected with AAV-DIO-hM4Di-mCherry", "value": "neither C21 nor CNO ligand influenced food intake"}, {"measurement": "agonist activity in IP1 assay", "setting": "hM1 [5]", "value": "no agonist activity"}, {"measurement": "pKi", "setting": "hM1 [6]", "value": "5.10 (±0.03) N = 7"}, {"measurement": "pEC50 calcium mobilization", "setting": "hM3Dq", "value": "7.26±0.07"}, {"measurement": "metabolic transformation to clozapine", "setting": "[7]; humans, nonhuman primates and guinea pigs", "value": "approximately 10%"}, {"measurement": "metabolic transformation to clozapine", "setting": "[7]; rodents", "value": "a few percent"}, {"measurement": "pEC50 IP1", "setting": "hM1Dq [8]; hM1Dq, CHO cells, mean (±SEM)", "value": "8.61 (±0.03) N = 10"}, {"measurement": "food intake, light cycle, sated mice", "setting": "[9]; AgRP-ires-Cre mice with AAV-DIO-hM3Dq-mCherry, i.p.", "value": "increases feeding behavior in sated mice"}, {"measurement": "food intake in control mice", "setting": "[9]; wildtype (non-Cre-expressing) littermates injected with AAV-DIO-hM3Dq-mCherry", "value": "neither C21 nor CNO affected feeding behavior"}, {"measurement": "agonist activity in pERK1/2 assay", "setting": "hM1 [10]", "value": "no agonist activity"}, {"measurement": "pEC50 cAMP", "setting": "hM4Di [11]", "value": "7.29 (±016) N = 4"}, {"measurement": "pKi", "setting": "hM4 [12]", "value": "4.85 (±0.05) N = 3"}, {"measurement": "pEC50 pERK", "setting": "hM4Di [13]; hM4Di, CHO cells, mean (±SEM)", "value": "6.89 (±0.12) N = 3"}]}
{"smiles": "Clc1ccc2c(c1)N=C(N1CCNCC1)c1ccccc1N2", "note": "[NDMC, N-desmethylclozapine]", "values": [{"measurement": "level in cerebrospinal fluid (CSF)", "setting": "[14]", "value": 43, "unit": "nM"}]}
{"smiles": "CN1CCN(C2=Nc3cc(Cl)ccc3Nc3ccccc32)CC1", "note": "[clozapine, reference compound]", "values": [{"measurement": "level in cerebrospinal fluid (CSF)", "setting": "[14]", "value": 34, "unit": "nM"}]}
{"smiles": "CN1CCN(C2=Nc3ccccc3Cc3ccccc32)CC1", "note": "[perlapine]", "values": [{"measurement": "EC50", "setting": "hM1Dq [2]", "value": 158, "unit": "nM"}, {"measurement": "Ki", "setting": "hM4Di [1]", "value": 67.6, "unit": "nM"}, {"measurement": "Ki", "setting": "hM1Dq [3]", "value": 26.3, "unit": "nM"}, {"measurement": "EC50", "setting": "hM4 [15]", "value": 56.2, "unit": "nM"}, {"measurement": "brain and plasma levels", "setting": "[16]", "value": "measurable brain and plasma levels"}, {"measurement": "metabolism to clozapine", "setting": "[16]", "value": "no evidence of metabolism to clozapine"}, {"measurement": "agonist activity in IP1 assay", "setting": "hM1 [5]", "value": "no agonist activity"}, {"measurement": "Ki", "setting": "hM1 [6]", "value": 91.2, "unit": "nM"}, {"measurement": "EC50", "setting": "hM3Dq; read-out: pEC50 calcium mobilization (converted)", "value": 8.32, "unit": "nM"}, {"measurement": "EC50", "setting": "hM1Dq [8]", "value": 4.17, "unit": "nM"}, {"measurement": "agonist activity in pERK1/2 assay", "setting": "hM1 [10]", "value": "no agonist activity"}, {"measurement": "EC50", "setting": "hM4Di [11]", "value": 63.1, "unit": "nM"}, {"measurement": "Ki", "setting": "hM4 [12]", "value": 263, "unit": "nM"}, {"measurement": "EC50", "setting": "hM4Di [13]", "value": 53.7, "unit": "nM"}]}
